Test results taken from patent US20240316146A1, “METHODS OF REDUCING NEUROPATHY AND NEUROPATHIC SYMPTOMS AND TREATING CANCER” (Bexion Pharmaceuticals Inc., priority 2021, published 2024).
Several values for one entry are separate records, joined by “and”; a condition that tells them apart may be missing. Equal entries are not always repeated.

Experiments:
[1] = Body weights, Study 2; assay type: in vivo, mouse; conditions: Group E Oxaliplatin/Pregabalin, individual mice
Text: Body Weights: The mice were weighed daily starting 1 day prior to treatment through day 9.

[2] = tested on: mouse oxaliplatin model of chemotherapy-induced neuropathy; test: Static mechanical (tactile) allodynia, von Frey filaments, Study 1; assay type: in vivo
Protocol: (§1) 60 adult male C57/BL6 mice (Charles River), 6-7 weeks of age, were housed in groups of 5 in Perspex cages, in a controlled environment of constant temperature and humidity (temperature: 21±1° C., light: dark cycle of 12:12 hours), with food and water available ad libitum. Animals were allowed to recover from transportation for at least one week before commencing experiments.
(§2) Static mechanical tactile allodynia: Static mechanical (tactile) allodynia was assessed by measurement of withdrawal threshold using calibrated (force; g) von-Frey monofilaments (Touch-Test Sensory Evaluator; Scientific Marketing Associates) applied to the plantar surface of the left hind-paw. The animals were placed in individual Perspex boxes on a raised metal mesh for 30-40 min before the test to habituate. A series of graduated von Frey hairs (0.07, 0.16, 0.4, 0.6 and 1 g) were applied in sequence with a protocol of 1 sec on 1 sec off repeated 10 times. Each hair was applied perpendicularly to the center of the ventral surface of the paw until it bent slightly. The force applied to the hind-paw of the animal to induce 5 responses out of 10 trials was recorded as paw withdrawal threshold (PWT) 50%.
(§3) Warm vials of BQX-350 were brought to room temperature and reconstituted with 4 mL water for injection via syringe. The vials were gently agitated and/or vortexed for 15-20 sec and allowed to sit at room temp for 5 mins. The rehydrated solution contained 2.2 mg/mL SapC (8.8 mg SapC per vial). About […] of the formulation was injected to achieve a target dose of 20 mg/kg in each mouse. Pregabalin was reconstituted in water and injected to achieve a target dose of 30 mg/kg in each mouse.
(§4) A two-way repeated measures ANOVA with ‘treatment’ as a between subjects effect, and ‘day’ as a within subjects effect was used (using GraphPad Prism version 9.0 for Windows, GraphPad Software, San Diego California USA), followed by Dunnett's multi comparisons test. Data is presented as mean±SEM.

[3] = tested on: mouse oxaliplatin model of chemotherapy-induced neuropathy; test: Thermal hypersensitivity, cold plate test 15° C., Study 1; assay type: in vivo
Protocol: as §1
(§5) Thermal hypersensitivity: Thermal hypersensitivity was assessed using a dynamic cold plate (Bioseb, France) set at a fixed temperature of 15° C. This method allows analysis of more integrated behaviors rather than reflex behaviors, e.g., the tail immersion test. In animal studies, thermal sensitivity is mostly evaluated based on nociceptive reaction latencies in response to a given thermal aversive stimulus. In this classical test, the temperature of the plate is fixed and remains constant: the latency to the first paw licking, jumps or withdrawal is taken as an index of nociceptive threshold. […] The results of the study are shown in Table 5 (raw data) below, Table 6 (summary) below, FIG. 4, and FIG. 5.
as §3, §4

[4] = tested on: mouse oxaliplatin model of chemotherapy-induced neuropathy; test: Static mechanical (tactile) allodynia, von Frey filaments, Study 2; assay type: in vivo; conditions: for PWT 50% (left hind paw Paw Withdrawal Threshold 50%): Group E Oxaliplatin/Pregabalin 30 mg/kg (days 3, 5, 7, 9), N 12; for Individual Paw Withdrawal Threshold 50% (von Frey filaments): Study 2, oxaliplatin 10 mg/kg IP day 0 (+vehicle, BXQ-350 2 mg/kg IP or pregabalin 30 mg/kg IP), individual mice
Protocol: as §2, §1
Static mechanical tactile allodynia: The same apparatus and protocol were used as for Study 1.

[5] = tested on: mouse oxaliplatin model of chemotherapy-induced neuropathy; test: Thermal hypersensitivity, cold plate test, Study 2; conditions: Group E Oxaliplatin/Pregabalin 30 mg/kg (days 3, 5, 7, 9), N 12
Protocol: as §5, §1
Thermal hypersensitivity: The same apparatus and protocol were used as for Study 1. The results of Study 2 are shown in Table 11 (raw data), Table 12 (summary), FIG. 8, and FIG. 9.

[6] = tested on: A549 tumor spheroids with PBMCs; test: 3D-tumor spheroid T-cell killing model (Incucyte); assay type: cell-based, human; conditions: BXQ-350 1.3 nM to 2.8 μM or Pembrolizumab 50 μg/ml; PBMCs with activation cocktail; day 6
Protocol: A549 human lung cancer cells, transfected with a lentivirus, were seeded in 96-wells ultra-low attachment plates at a concentration of 750 cells/well. The plates were then centrifuged at 1200 rpm for 2 min, to promote agglomeration of the cells and formation of spheroids. The plates then were incubated for three days at 37° C. After three days, freshly isolated human peripheral blood mononuclear cells (PBMCs) were added to the spheroids at a concentration of 10,000 PBMCs/well. To various wells were added one or more of: an activation cocktail containing an anti-CD3 antibody at a final concentration of 1 ng/ml and IL-12 at a final concentration of 10 ng/ml; BXQ-350 in serial dilutions from 25 μM to 1.27 nM; a positive control of Pembrolizumab at 50 μg/ml. A negative control group had no additions to the spheroids and PBMCs. The final volume of each well was then adjusted to 200 μL per well.
Plates were then left to incubate for an additional 30 minutes before being placed in the Incucyte® live cells analyzer; fluorescence was analyzed every 4 hours for 6 days. Images were then analyzed using the Incucyte® software to determine the IC50. Increased fluorescence intensity in A549 tumor cell spheroids correlates to an increased number of live Luc-A549 cells in the spheroids, and a lack of fluorescence denotes cell death.

[7] = oxaliplatin 10 mg/kg IP day 0 (+vehicle, BXQ-350 20 mg/kg IP or pregabalin 30 mg/kg IP), Baseline, individual mice
[8] = oxaliplatin 10 mg/kg IP day 0 (+vehicle, BXQ-350 20 mg/kg IP or pregabalin 30 mg/kg IP), Day 3, individual mice
[9] = oxaliplatin 10 mg/kg IP day 0 (+vehicle, BXQ-350 20 mg/kg IP or pregabalin 30 mg/kg IP), group mean
[10] = oxaliplatin treated animals, day 3 to day 9, BXQ-350 20 mg/kg, pregabalin 30 mg/kg 2 hours before assessment
[11] = cold plate 15° C., oxaliplatin 10 mg/kg IP day 0 (+vehicle, BXQ-350 20 mg/kg IP or pregabalin 30 mg/kg IP), group mean

CC(C)C[C@H](CN)CC(=O)O [Pregabalin]
Individual body weights ([1]; D 0): 21.9 g and 23.6 g (2×) and 28.1 g and 23.7 g and 25.7 g (2×) and 24.9 g and 21.8 g and 26.2 g and 23.4 g and 25.1 g | Individual body weights ([1]; D 1): 21.6 g and 23.0 g and 26.8 g and 22.7 g and 25.2 g and 25.1 g and 23.1 g and 24.5 g and 23.6 g and 24.8 g and 22.6 g and 24.4 g | Individual body weights ([1]; D 2): 21.8 g and 23.1 g and 27.0 g and 22.7 g and 25.1 g and 25.4 g and 23.8 g and 23.6 g and 23.4 g and 25.0 g and 22.8 g and 24.3 g | Individual body weights ([1]; D 3): 21.8 g and 23.0 g and 26.6 g and 22.6 g and 24.7 g and 25.5 g and 23.4 g and 22.4 g and 22.9 g and 24.8 g and 22.8 g and 24.0 g | Individual body weights ([1]; D 4): 21.8 g and 23.0 g and 27.0 g and 22.3 g and 25.0 g and 24.8 g and 23.4 g and 23.5 g and 23.7 g and 24.9 g and 23.1 g and 24.0 g | Individual body weights ([1]; D 5): 21.4 g and 24.0 g and 27.6 g and 22.9 g | Individual body weights ([1]; D −1): 21.9 g and 23.7 g and 27.9 g and 23.2 g (2×) and 23.4 g and 25.3 g and 23.3 g and 24.5 g and 24.2 g and 25.7 g and 24.8 g | Individual body weights ([1]; D −2): 21.9 g and 23.1 g and 27.6 g and 22.7 g and 25.6 g and 25.9 g and 23.3 g and 24.6 g and 23.8 g and 25.4 g and 22.8 g and 24.4 g | Individual body weights ([1]; D −3): 22.0 g and 23.0 g (4×) and 28.0 g and 26.0 g (3×) and 25.0 g (2×) and 24.0 g | Individual Paw Withdrawal Threshold 50% (von Frey filaments) [2, 7]: 0.8 g (4×) and 0.6 g (2×) and 1.0 g (2×) and 0.4 g (2×) and 0.7 g and 0.5 g | Individual Paw Withdrawal Threshold 50% (von Frey filaments) [2, 8]: 1.0 g (3×) and 0.6 g | PWT 50% (g) Baseline [2, 9]: 0.698 g | PWT 50% (g) D3 [2, 9]: *0.733 g | PWT 50% (g) D5 [2, 9]: ***0.800 g | PWT 50% (g) D7 [2, 9]: **0.733 g | PWT 50% (g) D9 [2, 9]: ****0.883 g | mechanical allodynia (in words) [2, 10]: reduced mechanical allodynia | Latency (s) Baseline [3, 11]: 53.629 s | Latency (s) D 3 [3, 11]: 49.400 s | Latency (s) D 5 [3, 11]: 50.000 s | Latency (s) D 7 [3, 11]: 47.183 s | Latency (s) D 9 [3, 11]: 59.300 s | Individual latency to displaying withdrawal behaviour in the cold plate test [3, 7]: 52.9 s and 74.9 s and 74.7 s and 57.3 s and 48.6 s and 40.2 s and 57.5 s and 67.5 s and 38.5 s and 44.8 s and 41.3 s and 45.6 s | Individual latency to displaying withdrawal behaviour in the cold plate test [3, 8]: 56.7 s and 52.4 s and 44.4 s and 62.3 s and 57.6 s and 46.9 s and 63.6 s and 40.8 s and 58.2 s and 36.5 s and 52.5 s and 20.9 s | Individual latency to displaying withdrawal behaviour in the cold plate test ([3]; oxaliplatin 10 mg/kg IP day 0 (+vehicle, BXQ-350 20 mg/kg IP or pregabalin 30 mg/kg IP), Day 5, individual mice): 22.2 s and 43.5 s and 91.7 s and 73.6 s and 41.5 s and 39.3 s and 61.3 s and 40.1 s and 30.1 s and 42.7 s and 45.2 s and 68.8 s | Individual latency to displaying withdrawal behaviour in the cold plate test ([3]; oxaliplatin 10 mg/kg IP day 0 (+vehicle, BXQ-350 20 mg/kg IP or pregabalin 30 mg/kg IP), Day 7, individual mice): 60.2 s and 40.3 s and 72.5 s and 98.2 s and 55.5 s and 29.3 s and 32.1 s and 35.2 s and 35.8 s and 32.5 s and 31.4 s and 43.2 s | Individual latency to displaying withdrawal behaviour in the cold plate test ([3]; oxaliplatin 10 mg/kg IP day 0 (+vehicle, BXQ-350 20 mg/kg IP or pregabalin 30 mg/kg IP), Day 9, individual mice): 37.8 s and 71.7 s and 75.8 s and 54.0 s and 72.7 s and 34.6 s and 84.7 s and 71.5 s and 74.9 s and 42.7 s and 38.9 s and 52.3 s | thermal (cold) sensitivity, cold plate test (in words) [3, 10]: reduced thermal sensitivity | PWT 50% (left hind paw Paw Withdrawal Threshold 50%) ([4]; D3, mean (SEM)): ****0.933 g | PWT 50% (left hind paw Paw Withdrawal Threshold 50%) ([4]; D5, mean (SEM)): ****0.833 g | PWT 50% (left hind paw Paw Withdrawal Threshold 50%) ([4]; D7, mean (SEM)): ****0.817 g | PWT 50% (left hind paw Paw Withdrawal Threshold 50%) ([4]; D9, mean (SEM)): ****0.967 g | PWT 50% (left hind paw Paw Withdrawal Threshold 50%) ([4]; D −1, mean (SEM)): 0.697 g | PWT 50% (left hind paw Paw Withdrawal Threshold 50%) ([4]; D −2, mean (SEM)): 0.600 g | PWT 50% (left hind paw Paw Withdrawal Threshold 50%) ([4]; D −3, mean (SEM)): 0.633 g | Individual Paw Withdrawal Threshold 50% (von Frey filaments) ([4]; D 3): 1.0 g (10×) and 0.6 g (2×) | Individual Paw Withdrawal Threshold 50% (von Frey filaments) ([4]; D 5): 1.0 g (7×) and 0.6 g (5×) | Individual Paw Withdrawal Threshold 50% (von Frey filaments) ([4]; D 7): 1.0 g (7×) and 0.6 g (4×) and 0.4 g | Individual Paw Withdrawal Threshold 50% (von Frey filaments) ([4]; D 9): 1.0 g (11×) and 0.6 g | Individual Paw Withdrawal Threshold 50% (von Frey filaments) ([4]; D −1): 1.0 g (5×) and 0.6 g (4×) and 0.4 g (2×) and 0.2 g | Individual Paw Withdrawal Threshold 50% (von Frey filaments) ([4]; D −2): 0.4 g (2×) and 0.6 g (9×) and 1.0 g | Individual Paw Withdrawal Threshold 50% (von Frey filaments) ([4]; D −3): 0.6 g (8×) and 1.0 g (2×) and 0.4 g (2×) | Latency to withdrawal behaviour in the cold plate test (15° C.) ([5]; D3, mean (SEM)): ***77.083 + s | Latency to withdrawal behaviour in the cold plate test (15° C.) ([5]; D5, mean (SEM)): 31.188 + s | Latency to withdrawal behaviour in the cold plate test (15° C.) ([5]; D7, mean (SEM)): *42.792 + s | Latency to withdrawal behaviour in the cold plate test (15° C.) ([5]; D9, mean (SEM)): 42.063 + s | Latency to withdrawal behaviour in the cold plate test (15° C.) ([5]; D −1, mean (SEM)): 43.175 + s | Latency to withdrawal behaviour in the cold plate test (15° C.) ([5]; D −2, mean (SEM)): 44.725 + s | Latency to withdrawal behaviour in the cold plate test (15° C.) ([5]; D −3, mean (SEM)): 43.908 + s

Pembrolizumab: positive control at 50 μg/ml in the spheroid model
cell death of spheroids (in words) [6]: increased cell death by day 6
